The text below walks through data of US6262067A, “Polymorphs of a crystalline azo-bicyclo 2,2,2 OCT-3-yl amine dihydrochloride and their pharmaceutical compositions” (priority 2000, dated 2001).

Structures can show the parent of a compound that is named as a salt. Where two headings read alike, the source gives them in different places.

Common to all, as to type: physicochemical
Data set [1] is described as follows: Solubility of polymorphs (aqueous intrinsic / aqueous equilibrium solubility).
Data set [2] can be described thus: Hygroscopicity / water uptake and loss at relative humidity (VTI).
Data set [3] is described as follows: Thermal water loss and degradation (TGA/DTA, DSC, fusion microscopy).
A short description of data set [4]: Ambient polymorph screen with wet solvents (slurry conversion, relative form stability). The settings on record: for Polymorph Isolated: starting Form I, ambient.

The solubility is the dissolved amount per volume that the medium holds. As to `COc1ccc(C(C)C)cc1CN[C@H]1C2CCN(CC2)[C@H]1C(c1ccccc1)c1ccccc1` [Form II, (2-Benzhydryl-1-azo-bicyclo 2,2,2oct-3-yl)-(5-isoproyl-2-methoxybenzyl)-amine], in data set [1] (aqueous), the “Aqueous Equilibrium” value was 395 mg/mL. Further, the “Aqueous Intrinsic Solubility” value in data set [1] (aqueous, intrinsic) is under 329 mg/mL. Besides, the solubility in data set [1] (medium not stated) is 390-400 milligrams per milliliter. Also, the “VTI (% H2 O absorbed)” value in data set [2] worked out at 0.4 % wt. The TGA/DTA degradation temperature in data set [3] came to 178 °C. In data set [3] (fusion microscopy), the “Fusion Microscopy water loss (in words)” value is given as “Sharp water loss” and the “Fusion Microscopy water loss temperature” value is ~ 100 °C. Also, in data set [4] (compared with Form I), the “relative stability of the polymorph” value is recorded as “lower energy, more stable form than Form I”.

Take `COc1ccc(C(C)C)cc1CN[C@H]1C2CCN(CC2)[C@H]1C(c1ccccc1)c1ccccc1` [Form I, (2-Benzhydryl-1-azo-bicyclo 2,2,2oct-3-yl)-(5-isoproyl-2-methoxybenzyl)-amine]: the “Aqueous Equilibrium” value in data set [1] (aqueous) was over 1155 mg/mL. In addition, in data set [1] (slurried in THF with >5% H2 O), the “solubility in wet THF (in words)” value is given as “solubility increases dramatically”. In addition, the solubility in data set [1] (water, aqueous, intrinsic, read-out: Aqueous Intrinsic Solubility) is over 648 mg/mL. Further, the “hygroscopicity (in words)” value in data set [2] is listed as “nonhydroscopic”. In data set [2], the “VTI (% H2 O absorbed)” value was 0.8 % wt. Besides, the DSC degradation temperature in data set [3] (DSC) was ~ 230 °C. Further, the “DSC water loss (in words)” value in data set [3] (DSC) is given as “undetected”. Also, the TGA/DTA degradation temperature in data set [3] stood at 194 °C. Moreover, in data set [3] (fusion microscopy), the “Fusion Microscopy water loss (in words)” value is on record as “Slow water loss”. In addition, the figures for the “conversion to Form II in slurry” value in data set [4] (THF with about 3% to 5% H2 O) and in data set [4] (THF with less than 2% H2 O) were “the conversion is to Form II” and “no conversion to Form II”, respectively. In addition, the “Polymorph Isolated” value in data set [4] (Acetone/5% H2 O, slurry) was “Form II”; in data set [4] (Acetonitrile/5% H2 O, slurry), “Form I”; in data set [4] (Ethyl Acetate/3.5% H2 O, slurry) it was “Form II”; in data set [4] (H2 O, solutions seeded with Form II), “Form II”; in data set [4] (IPO/5% H2 O, slurry), “Form I”; in data set [4] (Tetrahydrofuran/5% H2 O, slurry) it was “Form II”.

Consider `COc1ccc(C(C)C)cc1CN[C@H]1C2CCN(CC2)[C@H]1C(c1ccccc1)c1ccccc1` [anhydrous dihydrochloride, anhydrous dihydrochloride of (2-Benzhydryl-1-azo-bicyclo 2,2,2oct-3-yl)-(5-isoproyl-2-methoxybenzyl)-amine], for which the “hygroscopicity (in words)” value in data set [2] is “hygroscopic”. Also, in data set [2] (about 52% humidity or greater), the “hygroscopicity (humidity at which hygroscopic and forms dihydrates)” value was at least 52%.
